Counter-ions that a name gives are not always drawn.
Test system: SARS-CoV-2
Assay: microbe, parasite or virus in culture
Format: cell-based
Details: Severe acute respiratory syndrome coronavirus 2, 120 h; for Emax: read-out: Maximum confluence reached (%)

| Compound | Emax [%] | IC50 [µM] |
| --- | --- | --- |
| CN1CCN(CCCN2c3ccccc3Sc3ccc(C(F)(F)F)cc32)CC1 [Compound 94, 10-[3-(4-Methylpiperazin-1-yl)propyl]-2-(trifluoromethyl)-10H-phenothiazine dihydrochloride] | 38 | – |
| CC(C)C(=O)OCC(=O)[C@@]12O[C@H](C3CCCCC3)O[C@@H]1C[C@H]1[C@@H]3CCC4=CC(=O)C=C[C@]4(C)[C@H]3[C@@H](O)C[C@@]12C [Compound 96, 16alpha,17alpha-[(R)-Cyclohexylmethylenedioxy]-11beta-hydroxy-21-(isobutyryloxy)pregna-1,4-dien-3-one] | 35.2 | 47 |
| CCN(CC)CCOc1ccc(C(=C(Cl)c2ccccc2)c2ccccc2)cc1 [Compound 82, 2-[4-(2-Chloro-1,2-diphenylvinyl)phenoxy]-N,N-diethylethanamine citrate] | 54.7 | – |
| CC(C)C[C@H](NC(=O)CNC(=O)c1cc(Cl)ccc1Cl)B(O)O [Compound 108, 1(R)-[2-(2,5-Dichlorobenzamido)acetamido]-3-methylbutylboronic acid] | 30.8 | 135 |
| CCCc1c(-c2ccc(O)cc2)nn(-c2ccc(O)cc2)c1-c1ccc(O)cc1 [Compound 88, 1,3,5-Tris(4-hydroxyphenyl)-4-propyl-1H-pyrazole] | 48.2 | 8.3 |
| CC(C)c1cnn2c(NCc3ccccc3)cc(NCCCCCCN)nc12 [Compound 48, N5-(6-Aminohexyl)-N7-benzyl-3-isopropylpyrazolo[1,5-a]pyrimidine-5,7-diamine] | 47.3 | – |
| Cc1ccc(NC(=O)Nc2cc(C(F)(F)F)ccc2F)cc1Nc1ccc2c(c1)NC(=O)C2=Cc1ccc[nH]1 [Compound 92, 1-[2-Fluoro-5-(trifluoromethyl)phenyl]-3-[4-methyl-3-[2-oxo-3-(1H-pyrrol-2-ylmethylene)-2,3-dihydro-1H-indol-6-ylamino]phenyl]urea] | 75.5 | 5.23 |
| CN1[C@@H]2CC[C@H]1C[C@@H](OC(=O)c1cc(Cl)cc(Cl)c1)C2 [Compound 36, 3,5-Dichlorobenzoic acid endo-8-methyl-8-azabicyclo[3.2.1]oct-3-yl ester] | 69 | 43.9 |
| CC(C)(C)c1cc(C=C(C#N)C#N)cc(C(C)(C)C)c1O [Compound 66, (3,5-Di-tert-butyl-4-hydroxybenzylidene)malononitrile] | 47.6 | – |
| Nc1ccc(C(=O)Nc2cccc(-c3nc(N4CCOCC4)c4oc5ncccc5c4n3)c2)cn1 [Compound 104, 6-Amino-N-[3-[4-(4-morpholinyl)pyrido[3',2':4,5]furo[3,2-d]pyrimidin-2-yl]phenyl]pyridine-3-carboxamide] | 35.5 | – |
